# Legend:
# Test in all cases: greenhouse post-emergence herbicidal test
# [1] = system: ECHCG; type: in vivo, Echinochloa crus-galli; design: key to herbicidal activity against ECHCG found / herbicidal activity against ECHCH found: scale 0 to 100; settings: for herbicidal activity against ECHCG found: B.167 125 g/ha a.i.
# Experimental: (§1) The culture containers used were plastic pots containing medium loamy sand with approximately 4.6% of humus and 69.9% sand as substrate. The seeds of the test plants were sown separately for each species.
# (§2) For the post-emergence treatment, the test plants were grown to a plant height of from 1 to 15 cm, depending on the plant habit, and only then treated with the active compounds which had been suspended or emulsified in water. To this end, the test plants were either sown directly, and grown in the same containers, or they were first grown separately as seedlings and transplanted into the test containers a few days prior to treatment.
# (§3) Depending on the species, the plants were kept at 10-25° C. and 20-35° C., respectively.
# (§4) The test period extended over 1 to 3 weeks. During this time, the plants were tended and their response to the individual treatments was evaluated 20 days after treatment except mentioned otherwise.
# (§5) Evaluation was carried out using a scale from 0 to 100. 100 means no emergence of the plants, or complete destruction of at least the above-ground parts, and 0 means no damage or normal course of growth.
# (§6) The respective stated components A and B, and, if appropriate, C, were formulated as a 10% by weight strength emulsion concentrate and, with addition of the amount of solvent system, introduced into the spray liquor used for applying the active compound. In the examples, the solvent used was water.
# (§7) In the examples below, using the method of S. R. Colby (1967) “Calculating synergistic and antagonistic responses of herbicide combinations”, Weeds 15, p. 22 ff., the value E, which is expected if the activity of the individual active compounds is only additive, was calculated. E=X+Y−(X·Y/100)
# [2] = system: MATCH; type: in vivo, Matricaria recutita; design: key to herbicidal activity against MATCH found: rating on a scale from 0 to 100; settings: for herbicidal activity against MATCH found: I.1 62.5 g/ha
# Experimental: as §1, §2, §3, §4, §5, §6, §7
# [3] = system: ERICA; type: in vivo, Conyza canadensis; settings: Erigeron canadensis, post-emergence, 480 h, read-out: herbicidal activity against ERICA found
# Experimental: as §1, §2, §3, §4, §5, §6, §7
# [4] = system: KCHSC; type: in vivo, Kochia scoparia; design: key to herbicidal activity against KCHSC found: rating on a scale from 0 to 100; settings: for herbicidal activity against KCHSC found: post emergence, B.167 62.5 g/ha a.i.
# Experimental: as §1, §2, §3, §4, §5, §6, §7
# [5] = system: GERDI; type: in vivo, Geranium dissectum; design: key to herbicidal activity against GERDI found: rating on a scale from 0 to 100
# Experimental: as §1, §2, §3, §4, §5, §6, §7
# [6] = system: VIOAR; type: in vivo, Viola arvensis; settings: Viola arvensis, post-emergence, read-out: herbicidal activity against VIOAR found
# Experimental: as §1, §2, §3, §4, §5, §6, §7
# [7] = system: POLCO; type: in vivo, Polygonum convolvulus; design: key to herbicidal activity against POLCO found: rating on a scale from 0 to 100
# Experimental: as §1, §2, §3, §4, §5, §6, §7
# [8] = system: ABUTH; type: in vivo, Abutilon theophrast; design: key to herbicidal activity against ABUTH found: rating on a scale from 0 to 100; settings: for herbicidal activity against ABUTH found: post emergence, I.1 62.5 g/ha
# Experimental: as §1, §2, §3, §4, §5, §6, §7
# [9] = system: PAPRH; type: in vivo, Papaver rhoeas; settings: 62.5 g/ha a.i.
# Experimental: as §1, §2, §3, §4, §5, §6, §7
# [10] = system: IPOHE; type: in vivo, Ipomoea hederacea; settings: Ipomoea hederacea, post-emergence, 480 h, read-out: herbicidal activity against IPOHE found
# Experimental: as §1, §2, §3, §4, §5, §6, §7
# [11] = system: GALAP; type: in vivo, Galium aparine; settings: Galium aparine, post-emergence, 480 h, read-out: herbicidal activity against GALAP found
# Experimental: as §1, §2, §3, §4, §5, §6, §7
# [12] = system: ALOMY; type: in vivo, Alopecurus myosuroides; settings: Alopecurus myosuroides, post-emergence, 480 h, read-out: herbicidal activity against ALOMY found
# Experimental: as §1, §2, §3, §4, §5, §6, §7
# [13] = Echinochloa crus-galli, post-emergence, 480 h, read-out: herbicidal activity against ECHCG found
# [14] = Matricaria chamomilla, post-emergence, 480 h, read-out: herbicidal activity against MATCH found
# [15] = Bassia scoparia, post-emergence, 480 h, read-out: herbicidal activity against KCHSC found
# [16] = Geranium dissectum, post-emergence, 480 h, read-out: herbicidal activity against GERDI found
# [17] = Fallopia convolvulus, post-emergence, 480 h, read-out: herbicidal activity against POLCO found
# [18] = post emergence, I.1 62.5 g/ha, B.167 125 g/ha a.i.
# [19] = post emergence, aclonifen 250 g/ha a.i.
# [20] = post emergence, aclonifen 500 g/ha a.i.
# [21] = post emergence, aclonifen 1000 g/ha a.i.
structure (smiles),measurement,setting,value
"CS(=O)(=O)c1ccc(C(=O)C2C(=O)CCCC2=O)c(Cl)c1 [B.104, sulcotrione]",pest or weed control at 15 g/ha,[1]; [13],80%
same,pest or weed control at 15 g/ha,[2]; [14],10%
same,pest or weed control at 15 g/ha,[3],75%
same,pest or weed control at 15 g/ha,[4]; [15],90%
same,pest or weed control at 15 g/ha,[5]; [16],45%
same,pest or weed control at 15 g/ha,[6],85%
same,pest or weed control at 15 g/ha,[7]; [17],90%
"CP(=O)(O)CCC(N)C(=O)O (stereo not drawn) [B.120, glufosinate-ammonium]",pest or weed control at 125 g/ha,"[8]; Abutilon theophrasti, post-emergence, 480 h, read-out: herbicidal activity against ABUTH found",70%
same,herbicidal activity against PAPRH found,[9],30
same,pest or weed control at 62.5 g/ha,[2]; [14],55%
same,pest or weed control at 62.5 g/ha,[4]; [15],45%
same,pest or weed control at 62.5 g/ha,[10],80%
same,pest or weed control at 125 g/ha,[11],80%
same,pest or weed control at 62.5 g/ha,[5]; [16],40%
same,pest or weed control at 125 g/ha,[5]; [16],90%
same,pest or weed control at 125 g/ha,[6],15%
same,pest or weed control at 125 g/ha,[7]; [17],65%
"O=C(O)c1c(Cl)ccc2cc(Cl)cnc12 [B.167, quinclorac]",herbicidal activity against ABUTH found,[8]; B.167 62.5 g/ha a.i.,65
same,herbicidal activity against ABUTH found,[8]; B.167 125 g/ha a.i.,70
same,herbicidal activity against ECHCG found,"[1]; post emergence, I.1 15.62 g/ha",20
same,herbicidal activity against ECHCG found,"[1]; post emergence, I.1 31.25 g/ha",20
same,herbicidal activity against MATCH found,"[2]; post emergence, B.167 62.5 g/ha a.i.",0
same,herbicidal activity against MATCH found,"[2]; post emergence, B.167 125 g/ha a.i.",30
same,herbicidal activity against KCHSC found,[4]; I.1 31.25 g/ha,0
same,herbicidal activity against KCHSC found,[4]; I.1 62.5 g/ha,0
same,herbicidal activity against GERDI found,[5]; [18],0
same,herbicidal activity against POLCO found,"[7]; post emergence, I.1 15.62 g/ha, B.167 62.5 g/ha a.i.",0
same,herbicidal activity against POLCO found,"[7]; post emergence, I.1 15.62 g/ha, B.167 125 g/ha a.i.",30
same,herbicidal activity against POLCO found,"[7]; post emergence, I.1 62.5 g/ha, B.167 62.5 g/ha a.i.",0
same,herbicidal activity against POLCO found,[7]; [18],30
Nc1c([N+](=O)[O-])ccc(Oc2ccccc2)c1Cl [aclonifen],pest or weed control at 250 g/ha,"[1]; Echinochloa crus-galli, post-emergence, 480 h, post emergence, aclonifen 250 g/ha a.i., read-out: herbicidal activity against ECHCG found",50%
same,pest or weed control at 500 g/ha,"[1]; Echinochloa crus-galli, post-emergence, 480 h, post emergence, aclonifen 500 g/ha a.i., read-out: herbicidal activity against ECHCG found",80%
same,pest or weed control at 250 g/ha,[12]; [19],30%
same,pest or weed control at 500 g/ha,[12]; [20],60%
same,pest or weed control at 1000 g/ha,[12]; [21],70%
same,pest or weed control at 250 g/ha,"[2]; Matricaria chamomilla, post-emergence, 480 h, post emergence, aclonifen 250 g/ha a.i., read-out: herbicidal activity against MATCH found",0%
same,pest or weed control at 500 g/ha,"[2]; Matricaria chamomilla, post-emergence, 480 h, post emergence, aclonifen 500 g/ha a.i., read-out: herbicidal activity against MATCH found",0%
same,pest or weed control at 1000 g/ha,"[2]; Matricaria chamomilla, post-emergence, 480 h, post emergence, aclonifen 1000 g/ha a.i., read-out: herbicidal activity against MATCH found",0%
same,pest or weed control at 500 g/ha,[3]; [20],0%
same,pest or weed control at 1000 g/ha,[3]; [21],0%
same,pest or weed control at 250 g/ha,[11]; [19],80%
same,pest or weed control at 250 g/ha,"[5]; Geranium dissectum, post-emergence, 480 h, post emergence, aclonifen 250 g/ha a.i., read-out: herbicidal activity against GERDI found",30%
same,pest or weed control at 500 g/ha,"[5]; Geranium dissectum, post-emergence, 480 h, post emergence, aclonifen 500 g/ha a.i., read-out: herbicidal activity against GERDI found",70%
same,pest or weed control at 250 g/ha,"[7]; Fallopia convolvulus, post-emergence, 480 h, post emergence, aclonifen 250 g/ha a.i., read-out: herbicidal activity against POLCO found",85%
same,pest or weed control at 500 g/ha,"[7]; Fallopia convolvulus, post-emergence, 480 h, post emergence, aclonifen 500 g/ha a.i., read-out: herbicidal activity against POLCO found",95%
same,pest or weed control at 1000 g/ha,"[7]; Fallopia convolvulus, post-emergence, 480 h, post emergence, aclonifen 1000 g/ha a.i., read-out: herbicidal activity against POLCO found",85%
COC(=O)c1c(Cl)nn(C)c1S(=O)(=O)NC(=O)Nc1nc(OC)cc(OC)n1 [halosulfuron-methyl],pest or weed control at 5 g/ha,[1]; [13],45%
same,pest or weed control at 5 g/ha,[12],10%
